Like-named read-outs stand apart in the source and are kept apart here.
Experiment: Steady state oral/IV rat PK and compound penetration into spine and brain (Example 16)
Format: in vivo, Sprague-Dawley rats
Settings: for concentration at 5 h / AUC(0-inf) / AUC(0-t) / half-life / Cmax: male, Sprague-Dawley; for AUC(0-inf) / AUC(0-t) / half-life / Cmax: plasma
From the text: It is important if one is observing biochemical effects in the spine and brain that one is able to show clear evidence that the compound being tested is in fact able to penetrate to those areas of the body. The present example orally doses compound 118 once per day (SID) for three days to a series of rats. On the third after dosing the rats were then sacrificed after taking blood samples and the level of compound measured in the spine and brain.
Procedure: Twelve (12) male Sprague-Dawley rats were used. Fasting was conducted at least 16 hours prior to dose administration. The animals were placed into 4 groups of 3 animals per group. There was one intravenous (IV) group and three oral gavage (PO) groups (10 mg/Kg, 20 mg/Kg & 40 mg/Kg). The oral (PO) formulation for Groups 2-4 were prepared on the day of dosing at a target concentration of 0.5 mg/mL in 0.5% Methylcellulose (400 cps) to produce a white, homogeneous suspension. The study design is outlined in Table 4:
[…] […] All blood samples were immediately placed on ice until processing. Whole blood samples were centrifuged at 2200×g for 10 minutes in a refrigerated centrifuge (5±3° C.) to isolate plasma. The plasma samples were transferred to individual polypropylene vials and immediately placed on dry ice before storage at nominally −20±5° C. The plasma samples sometime later were then thawed and extracted and analyzed by high pressure liquid chromatography (HPLC) coupled to Mass Spectrometery (MS). Pharmacokinetic parameters were estimated using WinNonlin® pharmacokinetic software (Version No. 5.2.1) using a non-compartmental approach consistent with the PO route of administration. The rodents were then sacrificed. On Day 3, five hours after dosing, animals were euthanized and whole brain and spine were removed, washed with saline and flash frozen until storage at nominally −70° C. before transfer for concentration analysis. The plasma, brain and spinal tissue samples were analyzed for test article concentration using a Research Grade LC-MS/MS Assay.

[1] = rat, iv, 1 mg/kg, DAY 1, 1 mg/kg IV
[2] = rat, iv, 1 mg/kg, DAY 2, 1 mg/kg IV once per day
[3] = rat, iv, 1 mg/kg, DAY 3, 1 mg/kg IV once per day
[4] = rat, po, 10 mg/kg, DAY 1, 10 mg/kg PO
[5] = rat, po, 10 mg/kg, DAY 2, 10 mg/kg PO once per day
[6] = rat, po, 10 mg/kg, DAY 3, 10 mg/kg PO once per day
[7] = rat, po, 20 mg/kg, DAY 1, 20 mg/kg PO
[8] = rat, po, 20 mg/kg, DAY 2, 20 mg/kg PO once per day
[9] = rat, po, 20 mg/kg, DAY 3, 20 mg/kg PO once per day
[10] = rat, po, 40 mg/kg, DAY 1, 40 mg/kg PO
[11] = rat, po, 40 mg/kg, DAY 2, 40 mg/kg PO once per day
[12] = rat, po, 40 mg/kg, DAY 3, 40 mg/kg PO once per day

[2H]C([2H])([2H])c1ccc(C#Cc2ccc(S(=O)(=O)N[C@H](Cc3c[nH]c4ccccc34)C(=O)O)s2)cc1 [Compound 118, (R)-3-(1H-Indol-3-yl)-2-[5-(4-trideuteromethyl-phenylethynyl)-thiophene-2-sulfonylamino]-propionic acid-(D3, 98%)]
dose linearity in plasma (10, 20 and 40 mg/Kg oral doses, rat): exhibited dose linearity in plasma | concentration at 5 h (brain, 10-40 mg/Kg daily oral dose, Day 3, rat, highest level at 40 mg/Kg, read-out: Compound level in the brain): 30 to 84 ng/mL | concentration at 5 h (rat, brain, Day 3, five hours after dosing, 10 mg/kg PO once per day, read-out: Brain): 30.2 ng/mL | concentration at 5 h (rat, brain, Day 3, five hours after dosing, 20 mg/kg PO once per day, read-out: Brain): 42.1 ng/mL | concentration at 5 h (rat, brain, Day 3, five hours after dosing, 40 mg/kg PO once per day, read-out: Brain): 84.6 ng/mL | AUC(0-inf) [1]: 1820 ng·h/mL | AUC(0-t) [1]: 1810 ng·h/mL | half-life [1]: 0.97 h | AUC(0-inf) [2]: 1170 ng·h/mL | AUC(0-t) [2]: 1170 ng·h/mL | half-life [2]: 0.936 h | AUC(0-inf) [3]: 1720 ng·h/mL | AUC(0-t) [3]: 1650 ng·h/mL | half-life [3]: 0.89 h | AUC(0-inf) [4]: 3880 ng·h/mL | AUC(0-t) [4]: 3770 ng·h/mL | Cmax [4]: 1170 ng/mL | half-life [4]: 1.29 h | AUC(0-inf) [5]: 4480 ng·h/mL | AUC(0-t) [5]: 4390 ng·h/mL | Cmax [5]: 1340 ng/mL | half-life [5]: 1.24 h | AUC(0-inf) [6]: 12600 ng·h/mL | AUC(0-t) [6]: 4010 ng·h/mL | Cmax [6]: 1450 ng/mL | half-life [6]: 1.59 h | AUC(0-inf) [7]: 6520 ng·h/mL | AUC(0-t) [7]: 6410 ng·h/mL | Cmax [7]: 2140 ng/mL | half-life [7]: 1.2 h | AUC(0-inf) [8]: 4730 ng·h/mL | AUC(0-t) [8]: 4650 ng·h/mL | Cmax [8]: 2150 ng/mL | half-life [8]: 1.28 h | AUC(0-inf) [9]: 10100 ng·h/mL | AUC(0-t) [9]: 8820 ng·h/mL | Cmax [9]: 3850 ng/mL | half-life [9]: 1.02 h | AUC(0-inf) [10]: 15800 ng·h/mL | AUC(0-t) [10]: 15600 ng·h/mL | Cmax [10]: 5020 ng/mL | half-life [10]: 1.01 h | AUC(0-inf) [11]: 12200 ng·h/mL | AUC(0-t) [11]: 12200 ng·h/mL | Cmax [11]: 5570 ng/mL | half-life [11]: 1.02 h | AUC(0-inf) [12]: 15800 ng·h/mL | AUC(0-t) [12]: 15600 ng·h/mL | Cmax [12]: 5020 ng/mL | half-life [12]: 1.01 h | concentration at 5 h (rat, spine, Day 3, five hours after dosing, 10 mg/kg PO once per day, read-out: Spine): 15.6 ng/mL | concentration at 5 h (rat, spine, Day 3, five hours after dosing, 20 mg/kg PO once per day, read-out: Spine): 18.3 ng/mL | concentration at 5 h (rat, spine, Day 3, five hours after dosing, 40 mg/kg PO once per day, read-out: Spine): 31 ng/mL | concentration at 5 h (spine, 10-40 mg/Kg daily oral dose, Day 3, rat, highest level at 40 mg/Kg, read-out: Compound level in the spine): 15 to 31 ng/mL
